US5606038A, “Amphiphilic polyene macrolide antibiotic compounds” (Competitive Technologies, Inc., priority 1995, dated 1997)
In brackets after ≈: the same amount, converted by molar mass. Read-outs that look alike come from different tables or passages of the source.

Key:
[1] = tested on: Histoplasma capsulatum, Cryptococcus neoformans, and several species of Candida, including C. glabrata and C. albicans; conditions: cited from earlier work
[2] = in solution; literature; cited from earlier work
[3] = in vitro; conditions: human, red blood cells
[4] = tested on: Candida albicans; assay: minimum inhibitory concentration, Candida albicans, broth microdilution; format: cell-based; conditions: 24 h, 37° C.
Method: ^c minimum inhibitory concentration (see Example IV); three different
strains of Candida albicans were tested; all tests were done in broth
microdilution in yeast nitrogen baseglucose at 37° C. for 24 hours
the initial inoculum was 1 × 10^4 blastospores per ml
The minimum inhibitory concentration reported in Table I was obtained, and further confirmed as reported in Table II, by the methods described in the following Example IV.
(§1) Microorganism inocula was harvested from one to five day old cultures grown on Sabourand's dextrose agar. After two washes with sterile saline, the inocula were counted utilizing a hemacytometer and diluted or concentrated as required to 1×10^4 blastospores per ml. Sterile molten agar (at 50° C.) was inoculated, allowed to cool, and 10 mm diameter discs impregnated (from […] stock solutions) with each of the test compounds was placed on the surface of the agar. Zones of inhibition were measured after incubating the plates at 30° C. for 24-48 hours.
(§2) The compounds were then screened against three strains of three species of microorganisms: Candida albicans, Cryptococcus neoformans, and Aspergillus fumigatus using a conventional double dilution technique. All tests reported in Table II were done by broth microdilution in yeast nitrogen base-glucose using an inoculum of 1×10^4 blastospores per ml; the cultures were incubated at 37° C. for 24 hours, and the minimum concentration (in μg/ml) that prevents visible growth was recorded as the minimum inhibitory concentration.

[5] = tested on: human red blood cells; assay: hemolysis, 50% release of hemoglobin from human red blood cells; conditions: hemoglobin release from human red blood cells
[6] = tested on: Candida albicans; assay: K+ release from fungal cells; format: cell-based; conditions: 3×10^7 fungal cells/ml, read-out: concentration for releasing 50% of the K+ from fungal cells
[7] = tested on: Cryptococcus neoformans; assay: minimum inhibitory concentration, Cryptococcus neoformans, broth microdilution; format: cell-based; conditions: 24 h
Method: as §1, §2

[8] = tested on: Aspergillus fumigatus; assay: minimum inhibitory concentration, Aspergillus fumigatus, broth microdilution; format: cell-based; conditions: 24 h, 37° C.
Method: as §1, §2

[9] = tested on: Candida albicans (isolate NIH A); assay: survival of mice infected with Candida albicans (Example V); format: in vivo, Candida albicans in ICR mice; conditions: i.p. once per day for ten days, Example II 30 mg/kg, Amphotericin B 1 mg/kg
Text: Ten immunocompetent ICR mice weighing 30 g each in three groups were inoculated intravenously with 3.2×10^6 colony forming units of Candida albicans (isolate NIH A) per mouse.

[10] = critical micelle concentration in PBS by molar absorptivity at 409 nm; format: physicochemical; conditions: PBS (pH 7.4), 37° C.
Text: In its monomeric state, Amphotericin B has a characteristic absorption band at 409 nm; upon aggregation, however, its apparent molar absorptivity decreases in magnitude [see Biochemistry 30:5707 (1991)]. Thus, by measuring its molar absorptivity as a function of the reciprocal of the macrolide concentration, one can estimate the critical micelle concentration. This can be shown mathematically by allowing T, m and P to represent the total, monomeric, and micellar concentrations (i.e. the concentration of the drug that is present in micellar form) of the macrolide, respectively, and if ε represents the apparent molar absorptivity and εm and εp are the molar absorptivity for the monomeric and micellar components, respectively, then it can be shown that ε=εp +(εm -εp)m/T. At concentrations in excess of the critical micelle concentration, m is a constant and ε is inversely proportional to T.
Using the method described previously, the critical micelle concentrations for Amphotericin B and the conjugates described in the preceding examples were determined and are reported in Table I describing the aggregation, antifungal and hemolytic properties of […] macrolide antibiotics (in μM amounts) according to the present invention.
^a critical micelle concentration was determined in PBS (pH 7.4) at […]

[11] = solubility in water; format: physicochemical
[12] = tested on: fungal organisms; conditions: compared with Amphotericin B; cited from earlier work
[13] = tested on: mammalian cells; conditions: compared with Amphotericin B; cited from earlier work
[14] = C. albicans (1), read-out: minimum inhibitory concentration
[15] = C. albicans (2), read-out: minimum inhibitory concentration
[16] = C. albicans (3), read-out: minimum inhibitory concentration
[17] = three strains of Candida albicans, yeast nitrogen base-glucose, 1 × 10^4 blastospores per ml, read-out: MIC (minimum inhibitory concentration)
[18] = C. neoformans (1), 37° C., read-out: minimum inhibitory concentration
[19] = C. neoformans (2), 37° C., read-out: minimum inhibitory concentration
[20] = read-out: minimum inhibitory concentration, C. neofornams (3), 37° C.

Row | SMILES | HC50 at 1 h [3] | MIC [4, 14] | MIC [4, 15] | MIC [4, 16] | MIC [4, 17] | EC50 [6] | MIC [7, 18] | MIC [7, 19] | MIC [7, 20] | MIC ([8]; A. fumigatus (1)) | MIC ([8]; A. fumigatus (2)) | MIC ([8]; A. fumigatus (3)) | cmc (critical micelle concentration) [10] | further results
1 | C[C@@H]1[C@H](O)[C@@H](C)/C=C/C=C/C=C/C=C/C=C/C=C/C=C/[C@H](O[C@@H]2O[C@H](C)[C@@H](O)[C@H](N)[C@@H]2O)C[C@@H]2O[C@](O)(C[C@@H](O)C[C@@H](O)[C@H](O)CC[C@@H](O)C[C@@H](O)CC(=O)O[C@H]1C)C[C@H](O)[C@H]2C(=O)O [Amphotericin B, reference compound] | 1.8 µM | 1.6 µg/mL | 1.6 µg/mL | 1.6 µg/mL | 1.7 µM | 100 nM | 0.8 µg/mL (≈ 0.866 µM) | 0.8 µg/mL (≈ 0.866 µM) | 0.8 µg/mL (≈ 0.866 µM) | 0.8 µg/mL (≈ 0.866 µM) | 1.6 µg/mL (≈ 1.73 µM) | 0.8 µg/mL (≈ 0.866 µM) | 1.1 µM | sensitivity to Amphotericin B in vitro [1]: 0.03 to 1.0 µg/mL; critical micelle concentration [2]: very low critical micelle concentration; concentration needed for hemolysis relative to critical micelle concentration [5]: must be greater than their critical micelle concentration; percent survival ([9]; day 2 post-infection): 100%; percent survival ([9]; day 3 post-infection): 100%; percent survival ([9]; day 4 post-infection): 100%; percent survival ([9]; day 5 post-infection): 100%; percent survival ([9]; day 6 post-infection): 100%; percent survival ([9]; day 7 post-infection): 90%; percent survival ([9]; day 30 post-infection): 90%; solubility in water ([11]; similar to Example I product (<10 μg/ml)): low solubility
2 | C[C@@H]1[C@H](O)[C@@H](C)/C=C/C=C/CC/C=C/C=C/C=C/C=C/C(O[C@H]2O[C@H](C)[C@@H](O)[C@H](N)[C@@H]2O)CC2O[C@](O)(CC(O)C(O)CCC(O)CC(O)CC(O)CC(=O)O[C@H]1C)CC(O)C2C(=O)O (stereo partly shown) [Nystatin] | – | – | – | – | – | – | – | – | – | – | – | – | – | potency against fungal organisms [12]: somewhat lower in potency against fungal organisms as compared with Amphotericin B; toxicity toward mammalian cells [13]: may be far less toxic toward mammalian cells
3 | COCCNC(=O)[C@H]1[C@@H]2C[C@@H](O[C@@H]3O[C@H](C)[C@@H](O)[C@H](N)[C@@H]3O)/C=C/C=C/C=C/C=C/C=C/C=C/C=C/[C@H](C)[C@@H](O)[C@@H](C)[C@H](C)OC(=O)C[C@H](O)C[C@H](O)CC[C@@H](O)[C@H](O)C[C@H](O)C[C@](O)(C[C@@H]1O)O2 [Example I] | 7.9 µM | 1.6 µg/mL | 1.6 µg/mL | 1.6 µg/mL | 1.6 µM | 800 nM | 1.6 µg/mL (≈ 1.63 µM) | 3.2 µg/mL (≈ 3.26 µM) | 0.8 µg/mL (≈ 0.815 µM) | 3.2 µg/mL (≈ 3.26 µM) | 3.2 µg/mL (≈ 3.26 µM) | 1.6 µg/mL (≈ 1.63 µM) | 4.4 µM | solubility [11]: < 10 µg/mL
